Drawing on patent publication US12581252B2, “Substituted pyrrolo[3,4-b]pyridines as PI3K-α inhibitors” (Relay Therapeutics, Inc., priority 2020, dated 2026), this text covers IC50 for 60 compounds.

pIC50: −log10 of the molar value.

As usually defined, the pIC50 is the negative decadic logarithm of the IC50, by convention in mol/L. Read a low pIC50 as a large IC50.

Chain of H1047R PIK3CA enzyme (P42336 whole entry H1047R): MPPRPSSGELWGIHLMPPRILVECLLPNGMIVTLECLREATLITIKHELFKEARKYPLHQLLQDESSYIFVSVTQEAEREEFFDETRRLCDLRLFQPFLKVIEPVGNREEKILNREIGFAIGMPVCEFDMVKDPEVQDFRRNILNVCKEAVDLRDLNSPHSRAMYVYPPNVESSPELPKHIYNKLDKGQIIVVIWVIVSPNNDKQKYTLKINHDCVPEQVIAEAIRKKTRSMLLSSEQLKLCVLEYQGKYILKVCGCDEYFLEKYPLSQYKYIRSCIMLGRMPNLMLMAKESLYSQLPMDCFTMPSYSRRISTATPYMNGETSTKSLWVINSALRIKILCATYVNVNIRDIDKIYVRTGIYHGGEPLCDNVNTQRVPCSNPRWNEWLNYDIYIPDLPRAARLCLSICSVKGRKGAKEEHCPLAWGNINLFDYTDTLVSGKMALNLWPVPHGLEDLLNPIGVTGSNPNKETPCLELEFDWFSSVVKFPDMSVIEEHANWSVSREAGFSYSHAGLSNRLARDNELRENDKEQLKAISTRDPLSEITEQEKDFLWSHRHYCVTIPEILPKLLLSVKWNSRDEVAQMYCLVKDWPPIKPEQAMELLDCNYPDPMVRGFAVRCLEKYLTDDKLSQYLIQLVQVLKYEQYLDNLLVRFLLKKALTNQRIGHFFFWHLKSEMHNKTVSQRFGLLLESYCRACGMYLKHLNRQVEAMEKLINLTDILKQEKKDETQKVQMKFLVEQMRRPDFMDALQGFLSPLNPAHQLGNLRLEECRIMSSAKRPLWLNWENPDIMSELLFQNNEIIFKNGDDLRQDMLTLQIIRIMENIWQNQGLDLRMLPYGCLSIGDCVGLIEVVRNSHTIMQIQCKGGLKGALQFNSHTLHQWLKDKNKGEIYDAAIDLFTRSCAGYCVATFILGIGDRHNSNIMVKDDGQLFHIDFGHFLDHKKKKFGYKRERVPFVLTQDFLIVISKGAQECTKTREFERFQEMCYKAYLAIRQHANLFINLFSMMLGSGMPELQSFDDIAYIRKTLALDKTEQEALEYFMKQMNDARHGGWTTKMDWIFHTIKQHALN
Chain of H1047R PIK3CA enzyme (P27986 whole entry partner): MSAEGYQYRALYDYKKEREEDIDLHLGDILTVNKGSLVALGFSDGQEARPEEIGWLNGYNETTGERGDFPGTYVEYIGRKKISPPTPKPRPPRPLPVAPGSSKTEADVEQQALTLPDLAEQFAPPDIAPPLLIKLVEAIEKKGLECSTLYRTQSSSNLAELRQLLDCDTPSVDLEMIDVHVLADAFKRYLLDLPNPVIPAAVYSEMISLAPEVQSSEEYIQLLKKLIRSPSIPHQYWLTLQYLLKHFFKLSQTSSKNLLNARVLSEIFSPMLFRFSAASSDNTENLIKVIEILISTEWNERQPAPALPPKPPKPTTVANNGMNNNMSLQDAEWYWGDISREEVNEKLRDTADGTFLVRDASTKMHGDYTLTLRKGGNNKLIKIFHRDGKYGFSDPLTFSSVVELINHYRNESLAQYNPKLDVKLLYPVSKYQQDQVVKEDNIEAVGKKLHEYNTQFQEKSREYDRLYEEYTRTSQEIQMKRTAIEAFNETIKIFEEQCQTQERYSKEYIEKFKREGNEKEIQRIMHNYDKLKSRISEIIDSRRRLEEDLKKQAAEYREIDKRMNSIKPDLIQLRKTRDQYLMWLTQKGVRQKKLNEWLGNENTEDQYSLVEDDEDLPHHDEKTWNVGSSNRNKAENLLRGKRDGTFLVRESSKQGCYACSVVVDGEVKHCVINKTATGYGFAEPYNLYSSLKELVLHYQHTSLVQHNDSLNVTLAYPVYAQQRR

This assay concerns the target H1047R PIK3CA enzyme (Homo sapiens, UniProt P42336, H1047R). Kind of assay: ADP-Glo Biochemical PIK3CA Kinase Assay. On the technique in general: ADP-Glo first removes unused ATP, then detects ADP through luciferase.
In turn, `O=C(Nc1cc(Br)cc2c(=O)[nH]n(-c3cc(F)ccc3Cl)c12)c1cc(F)cc(C(F)(F)F)c1` [Compound I-752] gave a pIC50 of 5.00 to 6.00.
Turning to `O=C(Nc1cc(C2CNCCS2(=O)=O)cc2c1C(c1cc(F)ccc1Cl)NC2=O)c1cc(F)cc(C(F)(F)F)c1` (racemic) [Compound I-1255], the pIC50 is no less than 7.00.
Compound `O=C(Nc1cc(-c2ccc3ncc(Cl)n3c2)cc2c1C(c1cc(F)ccc1Cl)NC2=O)c1cc(F)cc(C(F)(F)F)c1` (stereo not drawn) [Compound I-1694] had a pIC50 of no less than 7.00.
`O=C(Nc1cc(OCc2cncnc2)cc2c1C(c1cc(F)ccc1Cl)NC2=O)c1cc(F)cc(C(F)(F)F)c1` (stereo not drawn) [Compound I-1735] had a pIC50 of no less than 7.00.
The result for `O=C1N[C@H](c2cc(F)ccc2Cl)c2c(NC(=O)[C@@H]3CCCCN3)cc(-c3ccc4ncnn4c3)cc21` [Compound I-2146] reads 4.00 to 5.00; that for `O=C1N[C@H](c2cc(F)ccc2Cl)c2c(NC(=O)N3C[C@@H](O)c4cc(F)ccc43)cc(-n3nccn3)cc21` (single isomer, unassigned) [Compound I-2344], 5.00 to 6.00.
Regarding `Cc1ccccc1C1NC(=O)c2nccc(NC(=O)c3cc(F)cc(C(F)(F)F)c3)c21` (stereo not drawn) [Compound I-142], the pIC50 is 6.30 to 7.00.
For `O=C1N[C@@H](c2cc(F)ccc2Cl)c2c(NC(=O)N3C[C@H](O)c4cc(F)ccc43)cc(-c3ccc(=O)n(C(F)F)c3)cc21` (single isomer, unassigned) [Compound I-2450], the pIC50 is 5.00 to 6.00.
For the compound `O=C(Nc1cc(C2COC2)nc2c1C(c1cc(F)ccc1Cl)NC2=O)c1cc(F)cc(C(F)(F)F)c1` (stereo not drawn) [Compound I-689], the pIC50 was 6.30 to 7.00.
Compound `O=C1NC(c2cc(F)ccc2Cl)c2c(Nc3ncnc4ccccc34)cc(Br)cc21` (stereo not drawn) [Compound I-864] gave a pIC50 of 4.00 to 5.00.
Under `Cc1ccccc1C1NC(=O)c2cccc(NC(=O)N3CCNC(C(F)(F)F)C3)c21` (racemic) [Compound I-60] stands 4.00 to 5.00.
On to `O=C(Nc1cccc2c1[C@H]([C@H]1CCCCCN1)NC2=O)c1cc(F)cc(C(F)(F)F)c1` (racemic) [Compound I-2318], for which the pIC50 was 4.00 to 5.00.
Compound `CS(=O)(=O)CCn1cc(-c2cc(NC(=O)c3cc(F)cc(C(F)(F)F)c3)c3c(c2)C(=O)NC3c2cc(F)ccc2Cl)cn1` (stereo not drawn) [Compound I-1398] had a pIC50 of no less than 7.00.
For `O=C1NC(c2cc(F)ccc2Cl)c2c(NC(=O)N3C[C@@H](C(F)(F)F)[C@@H](O)C3)cc(-c3ccc4ncnn4c3)cc21` (single isomer, unassigned) [Compound I-1978], the pIC50 is 5.00 to 6.00.
In the case of `O=C(Nc1cc(-c2ccc3ncnn3c2)cc2c1C(c1cc(F)ccc1Cl)NC2=O)C(=NO)c1ccccc1` (stereo not drawn) [Compound I-1760], the pIC50 is 4.00 to 5.00.
Consider `O=C(Nc1cccc2c1C(c1cc(F)ccc1Cl)NC2=O)c1csc2c1CCOC2` (stereo not drawn) [Compound I-2266], for which the pIC50 is 6.30 to 7.00.
`O=C(Nc1cc(-c2ccncc2F)nc2c1C(c1cc(F)ccc1Cl)NC2=O)c1cc(F)cc(Cl)c1` (stereo not drawn) [Compound I-502]: the pIC50 is no less than 7.00.
For the compound `O=C(Nc1cc(Br)cc2c1C(c1cc(F)ccc1Cl)NC2=O)c1cc(F)cc(F)c1` (stereo not drawn) [Compound I-468], the pIC50 was 6.30 to 7.00.
Consider `O=C(Nc1cc(-c2cnc(OC3CC3)nc2)cc2c1C(c1cc(F)ccc1Cl)NC2=O)c1cc(F)cc(C(F)(F)F)c1` (stereo not drawn) [Compound I-1492], for which the pIC50 was no less than 7.00.
Under `O=C(Nc1cc(-c2ccc3ncc(F)n3c2)cc2c1[C@@H](c1cc(F)ccc1Cl)NC2=O)c1cc(F)cc(C(F)(F)F)c1` [Compound I-1869] stands 6.00 to 6.30; under `O=C(Nc1cc(Br)cc2c1C(c1cc(F)ccc1Cl)NC2=O)c1cc(O)cc(F)c1` (stereo not drawn) [Compound I-1283], 5.00 to 6.00.
Regarding `O=C1NC(c2cc(F)ccc2Cl)c2c(NC(=O)C3CCCc4ccccc43)cc(Br)cc21` (stereo not drawn) [Compound I-631], the pIC50 is 5.00 to 6.00.
The result for `Nc1cc(NC(=O)N2C[C@H](O)c3cc(F)ccc32)c2c(c1)C(=O)N[C@@H]2c1cc(F)ccc1Cl` (single isomer, unassigned) [Compound I-2412] reads 5.00 to 6.00.
For `O=C(Nc1cc(-c2ccc3ncc(F)n3c2)cc2c1C(c1cc(F)ccc1Cl)NC2=O)c1cc(F)cc(C(F)(F)F)c1` (stereo not drawn) [Compound I-1793], the pIC50 was no less than 7.00.
As for `CC(=O)N1CCC[C@@H]1COc1cc(NC(=O)c2cc(F)cc(C(F)(F)F)c2)c2c(c1)C(=O)NC2c1cc(F)ccc1Cl` (single isomer, unassigned) [Compound I-1467], the pIC50 is no less than 7.00.
`O=C1NC(c2cc(F)ccc2Cl)c2c(CS(=O)(=O)c3ccccc3)cc(-c3ccc4ncnn4c3)cc21` (stereo not drawn) [Compound I-1728] showed a pIC50 of 4.00 to 5.00.
Under `CC(C)CC1NC(=O)c2cccc(NC(=O)c3cc(F)cc(C(F)(F)F)c3)c21` (stereo not drawn) [Compound I-442] stands 5.00 to 6.00; under `N#Cc1cc(-c2ccc3ncnn3c2)cc2c1C(c1cc(F)ccc1Cl)NC2=O` (stereo not drawn) [Compound I-1801], 5.00 to 6.00; under `O=C1N[C@H](c2cc(F)ccc2Cl)c2c(NC(=O)N3C[C@](O)(C(F)(F)F)c4cc(F)ccc43)cccc21` (single isomer, unassigned) [Compound I-2516], 5.00 to 6.00.
In turn, `Cc1ccccc1C1NC(=O)c2c(CNC(=O)C(F)(F)F)ccc(NC(=O)c3csc4ccccc34)c21` (stereo not drawn) [Compound I-223] had a pIC50 of 6.30 to 7.00.
The compound `CC(=O)c1cc(F)cc(C(=O)Nc2cccc3c2C(c2cc(F)ccc2Cl)NC3=O)c1` (stereo not drawn) [Compound I-581] showed a pIC50 of 5.00 to 6.00.
Under `O=C(Nc1cccc2c(=O)[nH]n(C3CCCCC3)c12)c1cc(F)cc(C(F)(F)F)c1` [Compound I-629] stands 5.00 to 6.00.
`O=C(Nc1cccc2c(=O)[nH]n(Cc3ccccc3)c12)c1csc2ccccc12` [Compound I-118]: the pIC50 is 4.00 to 5.00.
On to `Cc1ccc(C(=O)Nc2cc(Br)cc3c2C(c2cc(F)ccc2Cl)NC3=O)cc1C(F)(F)F` (stereo not drawn) [Compound I-875], for which the pIC50 was 6.30 to 7.00.
Under `O=C1N[C@H](c2cc(F)ccc2Cl)c2c(NC(=O)[C@H]3CCC[C@H](OC(F)(F)F)C3)cccc21` (single isomer, unassigned) [Compound I-2211] stands 4.00 to 5.00; under `[2H]c1nc2ccc(-c3cc(NC(=O)c4cc(F)cc(C(F)(F)F)c4)c4c(c3)C(=O)NC4c3cc(F)ccc3Cl)cn2n1` (stereo not drawn) [Compound I-1589], no less than 7.00.
Take `O=C1NC(c2ccccc2OC(F)(F)F)c2c(NC(=O)c3csc4ccccc34)ccnc21` (stereo not drawn) [Compound I-70]: the pIC50 was 5.00 to 6.00.
Regarding `O=C(Nc1cc(OC2COC2)cc2c1C(c1cc(F)ccc1Cl)NC2=O)c1cc(F)cc(C(F)(F)F)c1` (stereo not drawn) [Compound I-1131], the pIC50 is no less than 7.00.
Consider `CC(C)(O)c1cc(NC(=O)c2cc(F)cc(C(F)(F)F)c2)c2c(c1)C(=O)NC2c1cc(F)ccc1Cl` (stereo not drawn) [Compound I-128, N-(3-(2-chloro-5-fluorophenyl)-6-(2-hydroxypropan-2-yl)-1-oxoisoindolin-4-yl)-3-fluoro-5-(trifluoromethyl)benzamide], for which the pIC50 was no less than 7.00.
Compound `Nc1ncncc1-c1cc(NC(=O)c2cc(F)cc(C(F)(F)F)c2)c2c(c1)C(=O)NC2c1cc(F)ccc1Cl` (stereo not drawn) [Compound I-1106] had a pIC50 of no less than 7.00.
Under `COc1cc(F)cc(C(=O)Nc2cccc3c2C(c2ccccc2C)NC3=O)c1` (stereo not drawn) [Compound I-340] stands 5.00 to 6.00; under `Cc1ccccc1C1NC(=O)c2cccc(NC(=O)c3cc(C(F)(F)F)ccc3F)c21` (stereo not drawn) [Compound I-369], 5.00 to 6.00; under `O=C(Nc1cc(-c2ccc3nc(Cl)cn3c2)cc2c1C(c1cc(F)ccc1Cl)NC2=O)c1cc(F)cc(C(F)(F)F)c1` (stereo not drawn) [Compound I-1696], no less than 7.00.
`Nc1nnc2ccc(-c3cc(NC(=O)c4cc(F)cc(C(F)(F)F)c4)c4c(c3)C(=O)N[C@H]4c3cc(F)ccc3Cl)cn12` [Compound I-1449]: the pIC50 is no less than 7.00.
`CN(C)S(=O)(=O)n1cc(-c2cc(NC(=O)c3cc(F)cc(C(F)(F)F)c3)c3c(c2)C(=O)NC3c2cc(F)ccc2Cl)cn1` (stereo not drawn) [Compound I-1592]: the pIC50 was no less than 7.00.
The compound `O=C(Nc1cc(Br)cc2c1C(c1cc(F)c(F)cc1Cl)NC2=O)c1cc(F)cc(C(F)(F)F)c1` (stereo not drawn) [Compound I-678] had a pIC50 of no less than 7.00.
Under `N#Cc1ccccc1C1NC(=O)c2cccc(NC(=O)c3nsc4ccccc34)c21` (stereo not drawn) [Compound I-197] stands 5.00 to 6.00; under `O=C1NC(c2cc(F)ccc2Cl)c2c(NC(=O)N3CCCC3c3ccccc3)cc(Br)cc21` (stereo not drawn) [Compound I-769], 5.00 to 6.00.
In turn, `CC(=O)N1CCC12CN(c1cc(NC(=O)c3cc(F)cc(C(F)(F)F)c3)c3c(c1)C(=O)NC3c1cc(F)ccc1Cl)C2` (stereo not drawn) [Compound I-1387] showed a pIC50 of 6.30 to 7.00.
Under `O=C1NC(c2cc(F)ccc2Cl)c2c(NC(=O)N3CCCC34CCCCC4)cccc21` (stereo not drawn) [Compound I-2430] stands 6.00 to 6.30; under `O=C1NC(c2cc(F)ccc2Cl)c2c(NS(=O)(=O)N3CCc4ccccc43)cc(Br)cc21` (stereo not drawn) [Compound I-1287], 4.00 to 5.00; under `O=C1NC(c2cc(F)ccc2Cl)c2c(Nc3cccc(=O)[nH]3)cc(Br)cc21` (stereo not drawn) [Compound I-1974], 5.00 to 6.00.
In turn, `O=C1NC(c2cc(F)ccc2Cl)c2c(NC(=O)N3CCc4c3cccc4C(F)(F)F)cccc21` (stereo not drawn) [Compound I-2498] gave a pIC50 of 5.00 to 6.00.
As to `O=C(Nc1cc(Br)cc2c1[C@@H](c1cc(F)ccc1C(F)F)NC2=O)c1cc(F)cc(C(F)(F)F)c1` [Compound I-798], the pIC50 is 5.00 to 6.00.
Under `Cc1ccccc1C1NC(=O)c2nccc(NC(=O)N3CCc4cnccc43)c21` (stereo not drawn) [Compound I-248] stands 4.00 to 5.00; under `O=C(Nc1cc(-c2ccc(C(F)F)nc2)cc2c1[C@@H](c1cc(F)ccc1Cl)NC2=O)c1cc(F)cc(C(F)(F)F)c1` [Compound I-2004], 5.00 to 6.00; under `O=C(Nc1cccc2c1C(c1ccc3cn[nH]c3c1)NC2=O)c1cc(F)cc(C(F)(F)F)c1` (stereo not drawn) [Compound I-844], 4.00 to 5.00.
Under `N#Cc1cnc2ccc(-c3cc(NC(=O)c4cc(F)cc(C(F)(F)F)c4)c4c(c3)C(=O)NC4c3cc(F)ccc3Cl)cc2c1` (stereo not drawn) [Compound I-1603] stands no less than 7.00; under `Cc1ccccc1-n1[nH]c(=O)c2cccc(NC(=O)c3nsc4ccccc34)c21` [Compound I-117], 5.00 to 6.00.
With `O=C1NC(c2cc(F)ccc2Cl)c2c(NC(=O)n3ncc4ccccc43)cccc21` (stereo not drawn) [Compound I-2373], the pIC50 was 6.30 to 7.00.
